According to PMC8151276, “An Integrated Approach toward NanoBRET Tracers for Analysis of GPCR Ligand Engagement” (Molecules, 2021):
Each block holds one molecule with its values, some of them ahead of it.

How the values were obtained:
Type in all cases: binding
[1] = molecular target: T1, CCR8 (Homo sapiens, UniProt P51685); assay: NanoBRET screen HiBiT-CCR8 in HEK293
T1 construct: purchased Promega (in-house HiBiT-GPCR construct library, NanoBRET)
Method: (§1) Each tracer candidate was screened across the entire library of HiBiT-GPCR constructs using NanoBRET as the detection modality. As depicted in Figure 4A, the specificity of interactions was evaluated through decrease in BRET due to competitive displacement of a bound tracer by excess parental compound. Each tracer was analyzed for binding to each HiBiT-GPCR fusion in the absence and in the presence of competing parental compound. Briefly, HEK293 cells were transfected with HiBiT-GPCR constructs diluted into promoterless DNA to reduce expression and maximize translocation to the cell surface. Each tracer candidate was then screened at concentrations of 1 μM and 0.1 μM across cells expressing these fusions. Cells were treated for 1.5 h with tracer either alone or in the presence of 20 μM competing parental compound (i.e., control). BRET was measured upon addition of purified LgBiT and subsequent complementation with HiBiT genetically fused to a GPCR. The specificity of interactions was assessed through a decrease in BRET signal due to competitive displacement of the bound tracer. To further gauge the robustness of these interactions, the fold response over the control (i.e., BRETtracer/BRETcontrol) was calculated. We chose a 1.5-fold response, which translates to ≥7-fold signal over noise as the minimal threshold required to score an interaction as positive. […]. Below we highlight the screening results obtained for our exemplary fluorescent tracers based on Clozapine, Amitriptyline and AZD1283.
(§2) HiBiT-GPCR DNA constructs were diluted in 10 mM Tris pH 8 to a final concentration of 0.01 μg/μL, arrayed in 96-well plates and stored at −20 °C. For transfection, HEK293 cells were suspended in Opti-MEM (without phenol red) supplemented with 2% fetal bovine serum (Seradigm) and 100 units/mL penicillin–streptomycin (Gibco) at a final concentration of 220,000 cells/mL and dispensed into white 96-well plates at 90 μL/well. Subsequent transfections and screens were carried using an Agilent Bravo Automated Liquid Handling Platform. First, the 96-well HiBiT DNA arrays were diluted 25-fold in Opti-MEM (without serum or phenol red) to a final concentration of 0.0004 μg/μL and 20 μL of the diluted DNAs were transferred into new 96-well plates. Next, promoterless carrier DNA (1 μg/μL) was diluted 25-fold (0.04 μg/μL) and then dispensed into the diluted arrays at 20 μL/well. Following brief mixing, Viafect transfection reagent (Promega) diluted 16-fold into Opti-MEM was dispensed into the plates at 40 μL/well. After mixing by pipetting, plates were incubated for 10 min on the pipetting station deck. The DNA-transfection reagent complexes were then added to plates containing cells. To facilitate the screen, 10 μL of DNA-transfection reagent complexes were added in duplicates to the top 4 and bottom 4 rows, resulting in two identical 48-well arrays per plate. Plates with transfected cells were incubated for 18–20 h at 37 °C/5% CO2. A screen of each tracer across the entire library using two different concentrations requires duplicate plates of transfected cells. Depending on the number of tracers being screened, transfections can be scaled up using the same ratios. The next day, for each tracer, four 20× screening solutions in tracer dilution buffer (Promega) were prepared: two duplicates at final concentration of 20 μM and two duplicates at a final concentration of 2 μM. A competing unmodified compound was added to one of each duplicate at a final concentration of 400 μM. The four resulting solutions were diluted 4-fold in Opti-MEM without serum or phenol red to generate 5× solutions (5 µM and 0.5 µM tracer +/− 100 μM competing compound). To screen the library, a BioTek MultiFlo FX liquid dispenser was used to dispense 22.5 µL of tracer solution to the top 4 rows and 22.5 µL tracer + competing compound solution to the 4 bottom rows. Plates were briefly mixed on an orbital shaker and incubated for 1.5 h at room temperature. […]

[2] = molecular target: T2, P2RY14 (Homo sapiens, UniProt Q15391); assay: NanoBRET screen HiBiT-P2RY14 in HEK293
T2 construct: purchased Promega (in-house HiBiT-GPCR construct library, NanoBRET)
T2 sequence (Q15391 1-338): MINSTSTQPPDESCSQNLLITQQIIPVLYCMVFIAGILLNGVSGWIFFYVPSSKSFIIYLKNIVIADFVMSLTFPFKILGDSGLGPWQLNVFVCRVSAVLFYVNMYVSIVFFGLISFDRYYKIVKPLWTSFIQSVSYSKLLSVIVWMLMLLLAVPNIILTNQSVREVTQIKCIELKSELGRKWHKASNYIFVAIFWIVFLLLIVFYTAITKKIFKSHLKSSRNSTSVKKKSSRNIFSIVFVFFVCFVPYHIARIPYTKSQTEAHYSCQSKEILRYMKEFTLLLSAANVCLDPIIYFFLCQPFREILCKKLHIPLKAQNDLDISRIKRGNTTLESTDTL
Method: as §1, §2

[3] = molecular target: T3, P2RY1 (Homo sapiens, UniProt P47900); assay: NanoBRET screen HiBiT-P2RY1 in HEK293
T3 construct: purchased Promega (in-house HiBiT-GPCR construct library, NanoBRET)
Method: as §1, §2

T1 sequence (P51685 whole entry): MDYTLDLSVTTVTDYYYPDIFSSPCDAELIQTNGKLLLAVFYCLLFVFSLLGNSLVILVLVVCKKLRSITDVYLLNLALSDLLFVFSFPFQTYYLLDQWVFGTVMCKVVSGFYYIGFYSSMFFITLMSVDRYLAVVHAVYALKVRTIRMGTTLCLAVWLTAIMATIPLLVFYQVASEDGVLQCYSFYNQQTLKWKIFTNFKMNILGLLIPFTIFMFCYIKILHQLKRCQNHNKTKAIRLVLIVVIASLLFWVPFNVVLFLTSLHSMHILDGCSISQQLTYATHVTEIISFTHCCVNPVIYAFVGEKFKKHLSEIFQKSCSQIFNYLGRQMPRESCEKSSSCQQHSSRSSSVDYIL
T3 sequence (P47900 whole entry): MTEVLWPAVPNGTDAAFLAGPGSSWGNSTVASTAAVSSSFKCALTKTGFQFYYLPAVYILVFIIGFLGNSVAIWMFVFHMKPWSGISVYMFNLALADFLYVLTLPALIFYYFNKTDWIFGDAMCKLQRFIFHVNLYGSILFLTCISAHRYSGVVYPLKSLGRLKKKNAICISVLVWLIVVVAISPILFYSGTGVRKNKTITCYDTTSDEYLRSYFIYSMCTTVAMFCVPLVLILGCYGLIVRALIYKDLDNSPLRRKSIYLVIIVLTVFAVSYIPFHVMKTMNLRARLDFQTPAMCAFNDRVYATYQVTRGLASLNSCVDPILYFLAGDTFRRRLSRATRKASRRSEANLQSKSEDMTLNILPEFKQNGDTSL

Structure (SMILES): CN(CCC=C1c2ccccc2CCc2ccccc21)C(=O)CCOCCOCCOCCOCCNC(=O)CCc1ccc2n1[B-](F)(F)[N+]1=C(c3ccc[nH]3)C=CC1=C2 [Amitriptyline-e-2-NB590]
NanoBRET Fold Response ([1]; tracer at 1μM): 0.79 | NanoBRET Fold Response ([2]; tracer at 1μM): 1.03 | NanoBRET Fold Response ([3]; tracer at 1μM): 0.96

NanoBRET Fold Response ([1]; CCR8, tracer 0.1μM): 0.99 | NanoBRET Fold Response ([1]; CCR8, tracer 1μM): 0.89 | NanoBRET Fold Response ([2]; P2RY14, tracer 0.1μM): 0.98 | NanoBRET Fold Response ([2]; P2RY14, tracer 1μM): 0.91 | NanoBRET Fold Response ([3]; P2RY1, tracer 0.1μM): 1.02 | NanoBRET Fold Response ([3]; P2RY1, tracer 1μM): 1.02
Structure (SMILES): N#CN=C(NCCCOc1cccc(CN2CCCCC2)c1)NCCNC(=O)CCOCCOCCOCCOCCNC(=O)CCc1ccc2n1[B-](F)(F)[N+]1=C(c3ccc[nH]3)C=CC1=C2 [Aminopotentidine-2-NB590]

NanoBRET Fold Response ([1]; 0.1μM tracer): 1.13 | NanoBRET Fold Response ([1]; 1μM tracer): 1.09 | NanoBRET Fold Response ([2]; 0.1μM tracer): 0.98 | NanoBRET Fold Response ([2]; 1μM tracer): 0.98 | NanoBRET Fold Response ([3]; 0.1μM tracer): 0.99 | NanoBRET Fold Response ([3]; 1μM tracer): 0.99
Structure (SMILES): COc1ccc2c(n1)c(CCNC(C)=O)cn2CCNC(=O)CCc1ccc2n1[B-](F)(F)[N+]1=C(c3ccc[nH]3)C=CC1=C2 [Azamelatonin-1-NB590]

Structure (SMILES): CC(C)N(CC[C@H](c1ccccc1)c1cc(CCNC(=O)c2ccc(CNC(=O)CCc3ccc4n3[B-](F)(F)[N+]3=C(c5ccc[nH]5)C=CC3=C4)cc2)ccc1O)C(C)C [Tolterodine-BZ-NB590]
NanoBRET Fold Response ([1]; CCR8, tracer 0.1μM): 0.92 | NanoBRET Fold Response ([1]; CCR8, tracer 1μM): 1.00 | NanoBRET Fold Response ([2]; P2RY14, tracer 0.1μM): 0.86 | NanoBRET Fold Response ([2]; P2RY14, tracer 1μM): 0.88 | NanoBRET Fold Response ([3]; P2RY1, tracer 0.1μM): 1.43 | NanoBRET Fold Response ([3]; P2RY1, tracer 1μM): 1.03

Structure (SMILES): CN1CCN(C2=Nc3cc(Cl)ccc3Nc3ccc(CNC(=O)CCOCCOCCOCCOCCNC(=O)CCc4ccc5n4[B-](F)(F)[N+]4=C(c6ccc[nH]6)C=CC4=C5)cc32)CC1 [Clozapine-b-2-NB590]
NanoBRET Fold Response ([1]; CCR8, 0.1μM tracer): 0.88 | NanoBRET Fold Response ([1]; CCR8, 1μM tracer): 0.89 | NanoBRET Fold Response ([2]; P2RY14, 0.1μM tracer): 1.01 | NanoBRET Fold Response ([2]; P2RY14, 1μM tracer): 0.99 | NanoBRET Fold Response ([3]; P2RY1, 0.1μM tracer): 1.03 | NanoBRET Fold Response ([3]; P2RY1, 1μM tracer): 1.01
